Measured values as given in ChEMBL document CHEMBL4840350 (J Med Chem, 2021).

Tests used:
[1] = Stability in mouse liver S9 fraction assessed as half life at 3 uM measured upto 45 mins in presence of NADPH and UDPGA by LC-MS/MS analysis; assay type: ADME, subcellular
[2] = Stability in mouse liver S9 fraction assessed as extraction ratio at 3 uM measured upto 45 mins in presence of NADPH and UDPGA by LC-MS/MS analysis; assay type: ADME, subcellular
[3] = Dose normalized AUC (0 to 8 hrs) in CD-1 mouse at 3 mg/kg, po administered as single dose measured over 24 hrs by LC-MS/MS analysis; assay type: ADME, organism-based; details: in vivo
[4] = Observed clearance in CD-1 mouse at 3 mg/kg, po administered as single dose measured over 24 hrs by LC-MS/MS analysis; assay type: ADME, organism-based; details: in vivo
[5] = Dose normalized Cmax in CD-1 mouse at 3 mg/kg, po administered as single dose measured over 24 hrs by LC-MS/MS analysis; assay type: ADME, organism-based; details: in vivo
[6] = Dose normalized Cmax in CD-1 mouse at 60 mg/kg, po administered as repeated dose measured at day 4 by LC-MS/MS analysis; assay type: ADME, organism-based; details: in vivo, 96 h, time 4 day
[7] = Dose normalized Cmax in CD-1 mouse at 60 mg/kg, po administered as repeated dose measured at day 1 by LC-MS/MS analysis; assay type: ADME, organism-based; details: in vivo, 24 h, time 1 day
[8] = AUC(0 to 8 hrs) in CD-1 mouse at 3 mg/kg, po administered as single dose measured over 24 hrs by LC-MS/MS analysis; assay type: ADME, organism-based; set-up: route oral, time 24 hrs, dose 3 mg/kg; details: in vivo
[9] = Cmax in CD-1 mouse at 60 mg/kg, po administered as repeated dose measured at day 1 by LC-MS/MS analysis; assay type: ADME, organism-based; set-up: route oral, time 1 day, dose 60 mg/kg; details: in vivo
[10] = Dose normalized AUC (0 to 8 hrs) in CD-1 mouse at 60 mg/kg, po administered as repeated dose measured at day 4 by LC-MS/MS analysis; assay type: ADME, organism-based; details: in vivo, 96 h, time 4 day
[11] = AUC(0 to 8 hrs) in CD-1 mouse at 60 mg/kg, po administered as repeated dose measured at day 1 by LC-MS/MS analysis; assay type: ADME, organism-based; set-up: route oral, dose 60 mg/kg, time 1 day; details: in vivo
[12] = Dose normalized AUC (0 to 8 hrs) in CD-1 mouse at 60 mg/kg, po administered as repeated dose measured at day 1 by LC-MS/MS analysis; assay type: ADME, organism-based; details: in vivo, 24 h, time 1 day
[13] = AUC(0 to 8 hrs) in CD-1 mouse at 60 mg/kg, po administered as repeated dose measured at day 4 by LC-MS/MS analysis; assay type: ADME, organism-based; set-up: route oral, time 4 day, dose 60 mg/kg; details: in vivo
[14] = Cmax in CD-1 mouse at 60 mg/kg, po administered as repeated dose measured at day 4 by LC-MS/MS analysis; assay type: ADME, organism-based; set-up: route oral, dose 60 mg/kg, time 4 day; details: in vivo
[15] = Apparent permeability of compound in human Caco2 cells at 10 uM incubated for 120 mins by LC-MS/MS analysis; assay type: ADME, cell-based; details: Caco-2
[16] = Elimination half-life in CD-1 mouse at 60 mg/kg, po administered as repeated dose measured at day 4 by LC-MS/MS analysis; assay type: ADME, organism-based; details: in vivo, time 4 day, read-out: beta t1/2 (converted)
[17] = Drug uptake in po dosed CD-1 mouse xenografted with human HL-60 cells administered twice daily for 4 weeks and measured 1 to 8 hrs after post last dose; assay type: ADME, organism-based; details: in vivo, 672 h

**Q.** With `COc1ccc(Cn2cnc3cnc(Nc4cccc(NC(C)=O)c4)cc32)cc1OC` as the molecule, how does the half-life at […], 3 µM [1] read?
**A.** The half-life at […], 3 µM was 0.7 h.

**Q.** With `Cc1cc(F)ccc1-c1cc2c(cn1)ncn2-c1ccc(OC(F)F)nc1` as the molecule, how does the ERH [2] read?
**A.** Its ERH is 0.09.

**Q.** With `Cc1cc(C#N)ccc1-c1cc2c(cn1)ncn2-c1ccc(OC(F)F)cc1` as the molecule, how does the ERH [2] read?
**A.** The ERH was 0.02.

**Q.** With `Cc1cc(F)ccc1-c1cc2c(cn1)ncn2-c1ccc(OC(F)F)cc1` as the molecule, how does the AUC/dose [3] read?
**A.** The AUC/dose was 121 ng·h/mL per mg/kg.

**Q.** And the CL/F [4]?
**A.** The CL/F was 7.74 L/h/kg.

**Q.** What about the Cmax/dose [5] of the same molecule?
**A.** Its Cmax/dose is 0.043 µg/mL.

**Q.** What about the Cmax/dose [6] of the same molecule?
**A.** Its Cmax/dose is 0.045 µg/mL.

**Q.** What about the Cmax/dose [7] of the same molecule?
**A.** The Cmax/dose was 0.037 µg/mL.

**Q.** And the AUC(0-t) at 24 h [8]?
**A.** The AUC(0-t) at 24 h was 0.363 µg·h/mL.

**Q.** And the Cmax [9]?
**A.** The Cmax was 2.21 µg/mL.

**Q.** And the AUC/dose [10]?
**A.** Its AUC/dose is 154 ng·h/mL per mg/kg.

**Q.** What about the AUC(0-t) at 24 h [11] of the same molecule?
**A.** Its AUC(0-t) at 24 h is 9.86 µg·h/mL.

**Q.** What about the AUC/dose [12] of the same molecule?
**A.** The AUC/dose was 164 ng·h/mL per mg/kg.

**Q.** And the AUC at 96 h [13]?
**A.** The AUC at 96 h was 9.22 µg·h/mL.

**Q.** What about the Cmax [14] of the same molecule?
**A.** Its Cmax is 2.68 µg/mL.

**Q.** What about the Papp at 2 h, 10 µM [15] of the same molecule?
**A.** The Papp at 2 h, 10 µM was 140 nm/s.

**Q.** And the half-life [16]?
**A.** The half-life was 8.1 h.

**Q.** What about the Drug uptake [17] of the same molecule?
**A.** Its Drug uptake is “Dose-Dependent Effect”.
